The assay addresses T1, LonP1 C576S (Homo sapiens, UniProt P36776, C576S).
T1 construct: hexa-histidine (N); made in house; host or cells: Rosetta 2 E. coli
T1 sequence (P36776 68-959 C576S): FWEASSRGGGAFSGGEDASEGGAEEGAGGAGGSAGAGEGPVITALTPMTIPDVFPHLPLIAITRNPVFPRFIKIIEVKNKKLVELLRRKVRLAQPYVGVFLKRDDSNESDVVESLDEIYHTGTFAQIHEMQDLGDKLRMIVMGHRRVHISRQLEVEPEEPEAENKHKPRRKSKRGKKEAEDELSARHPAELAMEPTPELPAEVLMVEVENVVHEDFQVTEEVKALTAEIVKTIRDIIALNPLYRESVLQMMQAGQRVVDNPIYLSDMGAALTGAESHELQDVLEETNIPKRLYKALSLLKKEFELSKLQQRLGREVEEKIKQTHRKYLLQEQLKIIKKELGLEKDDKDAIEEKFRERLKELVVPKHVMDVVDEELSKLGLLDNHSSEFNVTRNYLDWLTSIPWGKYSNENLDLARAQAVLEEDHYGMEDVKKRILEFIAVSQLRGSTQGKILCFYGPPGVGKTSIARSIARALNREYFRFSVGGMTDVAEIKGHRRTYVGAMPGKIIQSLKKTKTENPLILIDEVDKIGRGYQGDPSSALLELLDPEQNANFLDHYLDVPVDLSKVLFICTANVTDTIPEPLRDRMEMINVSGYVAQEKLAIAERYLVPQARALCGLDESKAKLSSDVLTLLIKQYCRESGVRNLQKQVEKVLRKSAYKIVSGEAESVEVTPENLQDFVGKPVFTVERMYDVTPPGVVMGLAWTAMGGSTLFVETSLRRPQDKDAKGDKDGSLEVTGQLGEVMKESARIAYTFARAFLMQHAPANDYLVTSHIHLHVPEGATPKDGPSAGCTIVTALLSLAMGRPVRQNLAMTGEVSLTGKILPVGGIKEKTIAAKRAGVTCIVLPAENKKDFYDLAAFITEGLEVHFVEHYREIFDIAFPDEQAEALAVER
Put plainly: Endpoint ATPase assay, LonP1 C576S. The assay is classed as biochemical. The procedure: Human mitochondrial LonP1 and mutants lacking the predicted mitochondrial targeting sequence were fused to an N-terminal hexa-histidine affinity tag, expressed in Rosetta 2 E. Coli, and purified using a nickel agarose column as previously described ([72]) and protein concentration and buffer exchange carried out using Amicon Ultra centrifugal filtration. LonP1 mutant constructs were obtained from the PCR-based QuikChange Site-Directed Mutagenesis Kit.
ADP-Glo (Promega) assays were performed according to the manufacturer's protocols. Purified wild-type or mutant LonP1 (400 nM monomer), the 26S proteasome (3 nM), or no enzyme controls were preincubated in 96-well plates (60 min, 25 °C) with ten different concentrations of CDDO and its derivatives, TP-82, enoxolone (5 μM) or DMSO vehicle control in buffer (40 mM Tris-HCl (pH 7.5), 20 mM MgCl2, 0.1 mg/ml BSA and 5% DMSO). The 26S and 20S proteasome were also assayed at 0, 0.75, 1.5, 3, 6, and 12 nM in the absence of CDDO derivatives. […] Assay reagents were used to quench further ATPase activity and generate luminescence signals proportional to the concentration of ADP formed. Background (no enzyme control) luminescence values were subtracted, and resultant values were reported as a percentage of the no drug control (100%). […]

Broadly, the IC50 is the concentration that gives 50% inhibition. Regarding `CC1(C)CC[C@]2(C(=O)O)CC[C@]3(C)[C@H](C(=O)C=C4[C@@]5(C)C=C(C#N)C(=O)C(C)(C)[C@@H]5CC[C@]43C)[C@@H]2C1` [CDDO, 2-cyano-3,12-dioxooleana-1,9(11)-dien-28-oic acid], the “Fold increase in inhibition compared with WT” value stood at 1.2. Besides, under “end-point ATPase assay, N = 1, read-out: CDDO IC50”, the IC50 is 11.9 µM.

The record behind these values is article PMC8921294, “Inhibition of mitochondrial LonP1 protease by allosteric blockade of ATP binding and hydrolysis via CDDO and its derivatives” (The Journal of Biological Chemistry, 2022).
